Experimental data: publication PMC9743426, “Expanding the Chemical Space of Drug-like Passerini Compounds: Can α-Acyloxy Carboxamides Be Considered Hard Drugs?” (ACS Medicinal Chemistry Letters, 2022)

Experiments:
[1] = Hydrolytic stability in mouse liver microsomes (MLM); type: in vitro ADME; details: 30 min; for Residual substrate percentage, MLM: mouse liver microsomes 1.0 mg/mL protein, substrate 10 μM, 37 °C
Protocol: (§1) For all 43 compounds, a first evaluation of their chemical and metabolic stabilities toward hydrolysis was performed by incubating them in buffer under physiological conditions (50 mM Tris-HCl, pH 7.4) and in mouse liver microsomes (Table 1). This model was chosen because, similar to the human liver, both of the carboxylesterase isoforms are present. […] A more interesting trend was instead possible to observe with benzoic acids.
(§2) Hydrolytic stability in MLM and HLM
(§3) The standard incubation mixture (200 µL final volume) was carried out in a 50 mM TRIS-HCl buffer (pH 7.4) containing 150 mM KCl, tween 80 as cosolvent (0.8 mg/mg protein), and the substrate (10 μM). After pre-equilibration of the mixture, an appropriate volume of MLM or HLM suspension was added to give a final protein concentration of 1.0 mg/mL. The mixture was shaken for 30 minutes at 37 °C. Control incubations were carried out without the presence or microsomes or in pure acetonitrile. Each incubation was stopped by the addition of 200 µL ice-cold acetonitrile, vortexed and centrifuged at 13000 rpm for 5 min. The supernatants were analyzed by LC-HRMS. […]

[2] = Hydrolytic (chemical) stability in Tris-HCl buffer pH 7.4; type: physicochemical; details: 50 mM Tris-HCl buffer pH 7.4, incubation 30 min, without microsomes
Protocol: as §1, §2, §3

[3] = Hydrolytic stability in human liver microsomes (HLM); type: in vitro ADME; details: for Residual substrate percentage, HLM: human liver microsomes 1.0 mg/mL protein, substrate 10 μM, 37 °C; for Residual substrate percentage, HLM / Hydrolytic stability in human liver microsomes (in words): 30 min; for Hydrolytic stability toward esterases (in words): liver microsomes, species stated only for the stable ester (human liver)
Protocol: This was made in light of the fact that the overall metabolizing capability of murine hepatic enzymes, including carboxylesterases, is supposed to be higher compared to the human ones.[17]
as §2, §3

[4] = Hydrolytic stability in human plasma; type: in vitro ADME; details: substrate 10 μM, 30 min, 37 °C
Protocol: As a final point, for some of the compounds characterized by the best hepatic stability, we also evaluated them in human plasma (Table 2) and under acidic and alkaline conditions (see the Supporting Information), the latter to ascertain the stability of α-acyloxy carboxamides in the gastrointestinal tract. […] Once again, the ortho,ortho′-disubstitution of the aromatic ring is the one that gives the best metabolic stability. […]
Hydrolytic stability in human plasma
The standard incubation mixture (100 μL final volume) was carried out by dissolving the tested substrate compounds (10 μM) in DMSO (5% final volume) in preincubated plasma at 37 °C. The mixture was shaken for 30 min at 37 °C. Control incubations were carried out without substrate. Each incubation was stopped by addition of 200 μL of ice-cold acetonitrile, vortexed, and centrifuged at 13000 rpm for 10 min. The supernatants were analyzed by LC-HRMS. […]

P. aeruginosa ATCC 9027 = assay: Antibacterial activity, agar well-diffusion method; type: cell-based, Pseudomonas aeruginosa; details: for Inhibition zone: P. aeruginosa ATCC 9027, 1 mg/mL in DMSO, 55 μL per 6 mm well, 24 h at 37 °C, average ± SD; for Antibacterial activity (in words): P. aeruginosa ATCC 9027, 1 mg/mL
Source text: Recently an article presented the synthesis of 1,3-phenylenebis(2-(cyclohexylamino)-2-oxoethane-1,1-diyl) dibenzoate (99) (Figure 6), obtained with a double Passerini reaction starting from 1,3-benzenedicarbaldehyde. […] According to our studies, compounds 99 is expected to suffer from metabolic instability, whereas the new analogue 100 designed by us (Figure 6), containing methyl groups at the two ortho positions in each benzoate group, should be metabolically stable. We then synthesized the two compounds and evaluated their antibacterial activities on P. aeruginosa and their hydrolytic stabilities. The in vitro antibacterial activities of 99 and 100 were evaluated against the P. aeruginosa ATCC 9027 strain. […] No inhibition halos were observed around the wells containing DMSO alone.
The in vitro antibacterial activity of the compounds was assayed against the Gram-negative P. aeruginosa
ATCC 9027 by the agar well-diffusion method. Compounds 99, 100, and gentamycin were dissolved in
DMSO (Scharlab, Barcelona, ES) and tested at the concentration of 1 mg/mL. For comparison, gentamycin
was used as a negative control of growth and DMSO as positive control of growth. The strain, obtained from
the American Type Culture Collection (ATCC, Manassas, VA, United States) and stored at −80 °C in Brain
Heart Infusion (Scharlab, Barcelona, ES) with 25% glycerol (Scharlab, Barcelona, ES), was cultured onto
Tryptic Soy Agar (Scharlab, Barcelona, ES) at 37°C for 16 h.
A bacterial suspension (ca. 1.5×10^8 Colony Forming Unit per ml) was prepared in isotonic saline solution
(NaCl 0,9%) and spread onto Muller-Hinton agar (Scharlab, Barcelona, ES) surfaces using a sterile swab.
Wells (6 mm diameter) were punched using a sterile punch cutter and filled with 55 μL of each sample. Plates
were left at room temperature for 1h to allow each sample to diffuse into the agar and then incubated at 37 °C
for 24 h. Finally, the inhibition zone diameters were measured.
The assay was carried out in triplicate and repeated twice. Results were expressed as average values ± standard

Pseudomonas aeruginosa = test system: Pseudomonas aeruginosa; design: method as in doi:10.1155/2013/125959; details: mixture of two enantiomers and a meso form; cited from earlier work

## Cc1cccc(C)c1C(OC(=O)c1ccccc1)C(=O)NC(C)(C)C (stereo not shown) [Compound 57]
[1]
  Residual substrate percentage, MLM: 3%
  Hydrolysis of the ester group in mouse liver microsomes (in words): rapidly degraded
[2]
  Residual substrate percentage, buffer: >99%
[3]
  Residual substrate percentage, HLM: 73%
  Hydrolytic stability in human liver microsomes (in words): stable
[4]
  Residual substrate percentage, plasma: 90%

## gentamycin
P. aeruginosa ATCC 9027
  Inhibition zone: 22.3 ± 1.7 mm

## O=C(OC(C(=O)NC1CCCCC1)c1cccc(C(OC(=O)c2ccccc2)C(=O)NC2CCCCC2)c1)c1ccccc1 (stereo not shown) [Compound 99, 1,3-phenylenebis(2-(cyclohexylamino)-2-oxoethane-1,1-diyl) dibenzoate, reference compound]
[1]
  Residual substrate percentage, MLM: 5%
  Hydrolysis of the ester group in mouse liver microsomes (in words): high instability
[2]
  Residual substrate percentage, buffer: >99%
[3]
  Residual substrate percentage, HLM: 47%
  Hydrolytic stability in human liver microsomes (in words): hydrolytic stability increased
Pseudomonas aeruginosa
  Antibacterial activity against Pseudomonas aeruginosa (in words): good antibacterial activity
P. aeruginosa ATCC 9027
  Antibacterial activity (in words): moderate antibacterial activities
  Inhibition zone: 10.2 ± 1.2 mm
[4]
  Residual substrate percentage, plasma: 93%

## Cc1ccc(Br)c(C)c1C(=O)OCC(=O)NC(C)(C)C [Compound 98]
[1]
  Residual substrate percentage, MLM: >99%
  Hydrolysis of the ester group in mouse liver microsomes (in words): extremely stable
[2]
  Residual substrate percentage, buffer: >99%
[3]
  Residual substrate percentage, HLM: >99%
  Hydrolytic stability in human liver microsomes (in words): excellent stability
[4]
  Residual substrate percentage, plasma: >99%

## CC(C)C(OC(=O)/C=C/c1ccccc1)C(=O)NC(C)(C)C (stereo not shown) [Compound 65]
[1]
  Residual substrate percentage, MLM: <1%
  Hydrolysis of the ester group in mouse liver microsomes (in words): completely unstable
[2]
  Residual substrate percentage, buffer: >99%
[3]
  Residual substrate percentage, HLM: 3%
  Hydrolytic stability in human liver microsomes (in words): instability

## CC(C)(C)NC(=O)COC(=O)C12CC3CC(CC(C3)C1)C2 [Compound 97]
[1]
  Residual substrate percentage, MLM: 1%
  Hydrolysis of the ester group in mouse liver microsomes (in words): rapidly metabolized
[2]
  Residual substrate percentage, buffer: >99%
[3]
  Residual substrate percentage, HLM: 2%
  Hydrolytic stability in human liver microsomes (in words): instability

## Cc1cccc(C)c1C(=O)OC(C(=O)NC1CCCCC1)c1cccc(C(OC(=O)c2c(C)cccc2C)C(=O)NC2CCCCC2)c1 (stereo not shown) [Compound 100]
[1]
  Residual substrate percentage, MLM: 95%
  Hydrolysis of the ester group in mouse liver microsomes (in words): completely stable
[2]
  Residual substrate percentage, buffer: >99%
[3]
  Residual substrate percentage, HLM: >99%
  Hydrolytic stability in human liver microsomes (in words): completely stable
P. aeruginosa ATCC 9027
  Antibacterial activity (in words): moderate antibacterial activities
  Inhibition zone: 10.4 ± 1.3 mm
[4]
  Residual substrate percentage, plasma: 84%

## COC(=O)c1c(C)cccc1C [Compound 12, methyl 2,6-dimethylbenzoate, reference compound]
[1]
  Residual substrate percentage, MLM: 77%
[2]
  Residual substrate percentage, buffer: > 99%
[3]
  Residual substrate percentage, HLM: > 99%
  Hydrolytic stability toward esterases (in words): stable toward esterases
[3]; listed as methyl 2,6-dimethylbenzoate
  Hydrolytic stability toward esterases (in words): completely resistant to esterases

## CC(C)(C)NC(=O)C(OC(=O)c1ccccc1)c1ccccc1-c1ccccc1 (stereo not shown) [Compound 58]
[1]
  Residual substrate percentage, MLM: 2%
  Hydrolysis of the ester group in mouse liver microsomes (in words): rapidly degraded
[2]
  Residual substrate percentage, buffer: >99%
[3]
  Residual substrate percentage, HLM: >99%
  Hydrolytic stability in human liver microsomes (in words): stable
[4]
  Residual substrate percentage, plasma: 90%

## COC(=O)c1ccccc1 [Compound 11, methyl benzoate, reference compound]
[1]
  Residual substrate percentage, MLM: < 1%
[2]
  Residual substrate percentage, buffer: > 99%
[3]
  Residual substrate percentage, HLM: < 1%

## Cc1cccc(C)c1C(=O)OC(C(=O)NC(C)(C)C)c1ccccc1 (stereo not shown) [Compound 78, 2-(tert-butylamino)-2-oxo-1-phenylethyl 2,6-dimethylbenzoate]
[1]
  Residual substrate percentage, MLM: >99%
[2]
  Residual substrate percentage, buffer: >99%
[3]
  Residual substrate percentage, HLM: >99%
  Hydrolytic stability in human liver microsomes (in words): excellent stability
[4]
  Residual substrate percentage, plasma: >99%

## Cc1cccc(Cl)c1C(=O)OCC(=O)NC(C)(C)C [Compound 80]
[1]
  Residual substrate percentage, MLM: 97%
[2]
  Residual substrate percentage, buffer: 98%
[3]
  Residual substrate percentage, HLM: >99%
  Hydrolytic stability in human liver microsomes (in words): excellent stability
[4]
  Residual substrate percentage, plasma: >99%
